Assay results reported in US20250257361A1, “COMPOSITIONS AND METHODS FOR TREATING LIVER DISEASES WITH SIRNAS TARGETING SMYD2” (The Board of Regents of The University of Texas System, priority 2022, published 2025).

What was measured:
human SMYD2 = assay: SMYD2 luciferase reporter assay (dual Renilla/Firefly) for siRNA knockdown in Cos7 cells; format: cell-based; settings: psiCheck2 human Smyd2 luciferase reporter and siRNA co-transfected, 24 h, triplicates (Table 2; text says 48 hours)
SMYD2 = SMYD2 (Homo sapiens, UniProt Q9NRG4); settings: cited from earlier work
WD NASH model = tested on: WD NASH model
Experimental: FIG. 6A. Experimental design for pre-clinical testing of AZ505 in the WD NASH model. WD was given at 8 weeks of age for a total of 2 months. AZ505 treatment started one day after WD was initiated. Vehicle (2.5% DMSO in saline) or AZ505 (10 mg/kg in saline containing 2.5% DMSO) was given to mice intraperitoneally 3 times per week. FIG. 6B. Body weight of vehicle or AZ505 treated mice before and after 2 months of WD (n=15 and 14 mice). FIGS. 6C-6D. Liver weight and liver/body weight ratios of vehicle or AZ505 treated mice after 2 months of WD (n=15 and 14). FIG. 6E. Representative liver pictures and H&E staining of liver sections for vehicle or AZ505 treated mice after 2 months of WD. FIGS. 6F-6G. Liver function analysis using plasma ALT and AST (n=15 and 14). FIGS. 6H-6I. Liver triglyceride and cholesterol analysis (n=15 and 14). FIGS. 6J-6K. Plasma triglyceride and cholesterol analysis (n=15 and 14).
In order to determine if chemical SMYD2 inhibition could serve as orthogonal validation of the genetic findings, and to investigate the therapeutic potential of SMYD2 blockade in fatty liver disease, AZ505 was used. […] WD was fed to WT mice at 8 weeks of age, followed by treatment with vehicle control or AZ505 with a dose of 10 mg/kg (intraperitoneal injection) three times per week (FIG. 6A).
All mice were handled in accordance with the guidelines of the Institutional Animal Care and Use Committee at UT Southwestern. All experiments were done in an age and sex controlled fashion unless otherwise noted. C57BL/6 strain background mice were used for all the experiments. LSL-tdTomato (strain #007914) and Rosa-rtTA; TetO-Cas9 mice (#029415) were obtained from The Jackson Laboratory. Mice homozygous for both Rosa-rtTA and TetO-Cas9 were used to ensure a high Cas9 expression level in the liver. Western Diet (WD) used for NASH modeling is described in (Tsuchida et al., 2018). It is composed of high fat solid food (ENVIGO #TD.120528) and high sugar water containing 23.1 g/L d-fructose (Sigma-Aldrich #F0127) and 18.9 g/L d-glucose (Sigma-Aldrich #G8270).
Liver pieces were fixed in buffered formalin (Fisherbrand #245-685) for 24 h with gentle shaking at 4° C. and then transferred to 70% EtOH for another 24 h with shaking at 4° C. Paraffin embedding, liver sectioning (4 μm thickness), and H&E staining were performed at the UT Southwestern Tissue Management Shared Resource Core. For IHC staining, the following primary antibodies were used: Pten (CST #9559, IHC 1:200); Ki67 (Abcam #AB15580, IHC 1:200). IHC). IHC was performed as previously described (Zhu et al., 2010). TUNEL staining was performed on paraffin embedded liver sections using In Situ Cell Death Detection Kit, Fluorescein (Roche #C755B40) according to the manufacturer's protocol. QuPath software (https://qupath.github.io/) was used to quantify Ki67 and TUNEL staining.
The supernatant after centrifugation (plasma) was analyzed for AST, ALT, cholesterol, and triglyceride using VITROS MicroSlide Technology at the UT Southwestern Metabolic Phenotyping Core. 100-150 mg of liver per sample was weighted and used for lipid extraction and quantification at the UT Southwestern Metabolic Phenotyping Core.

[1] = AZ505 10 mg/kg i.p. 3 times per week vs. vehicle, 2 months WD

Sequence of SMYD2 (Q9NRG4 whole entry, species assumed): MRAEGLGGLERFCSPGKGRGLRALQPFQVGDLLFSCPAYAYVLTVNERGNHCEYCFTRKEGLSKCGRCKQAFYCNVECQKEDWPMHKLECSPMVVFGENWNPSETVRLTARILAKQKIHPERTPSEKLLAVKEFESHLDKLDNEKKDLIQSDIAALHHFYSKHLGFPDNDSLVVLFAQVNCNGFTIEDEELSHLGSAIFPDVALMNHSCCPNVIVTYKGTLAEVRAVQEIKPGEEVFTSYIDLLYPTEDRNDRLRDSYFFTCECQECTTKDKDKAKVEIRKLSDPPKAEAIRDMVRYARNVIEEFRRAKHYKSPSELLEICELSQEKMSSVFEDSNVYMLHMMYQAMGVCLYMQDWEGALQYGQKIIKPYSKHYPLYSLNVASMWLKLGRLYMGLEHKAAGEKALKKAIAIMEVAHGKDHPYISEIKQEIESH

| Compound | % mRNA remaining (compared to Ctrl siRNA) (human SMYD2) | other results |
| --- | --- | --- |
| SMYD2 757: siRNA to human SMYD2; sense CCGGUUAAGAGAUUCUUAUUU (SEQ 59), antisense AUAAGAAUCUCUUAACCGGUU (SEQ 116) (listed as RNA, chemistry not given here) | 82.3% |  |
| SMYD2 1249: siRNA to human SMYD2; sense CGGCAAAGAUCAUCCAUAUUU (SEQ 60), antisense AUAUGGAUGAUCUUUGCCGUU (SEQ 117) (listed as RNA, chemistry not given here) | 110.9% |  |
| SMYD2 675: siRNA to human SMYD2; sense GAGCUGUACAGGAAAUCAAUU (SEQ 64), antisense UUGAUUUCCUGUACAGCUCUU (SEQ 121) (listed as RNA, chemistry not given here) | 121.4% |  |
| SMYD2 1251-1273: siRNA to human SMYD2; sense GCAAAGAUCAUCCAUAUAUUU (SEQ 77), antisense AUAUAUGGAUGAUCUUUGCCG (SEQ 134) (listed as RNA, chemistry not given here) | 30.0% |  |
| SMYD2 736: siRNA to human SMYD2; sense CCCAACGGAAGAUAGAAAUUU (SEQ 61), antisense AUUUCUAUCUUCCGUUGGGUU (SEQ 118) (listed as RNA, chemistry not given here) | 115.1% |  |
| SMYD2 706-728: siRNA to human SMYD2; sense GGUUUUUACCAGCUAUAUUGA (SEQ 70), antisense AAUAUAGCUGGUAAAAACCUC (SEQ 127) (listed as RNA, chemistry not given here) | 53.2% |  |
| SMYD2 1276-1298: siRNA to human SMYD2; sense GAUCAAACAGGAAAUUGAAAG (SEQ 72), antisense UUCAAUUUCCUGUUUGAUCUC (SEQ 129) (listed as RNA, chemistry not given here) | 26.6% |  |
| SMYD2 310: siRNA to human SMYD2; sense GGAGACUGUAAGACUAACAUU (SEQ 63), antisense UGUUAGUCUUACAGUCUCCUU (SEQ 120) (listed as RNA, chemistry not given here) | 24.0% |  |
| SMYD2 894: siRNA to human SMYD2; sense CACGCAACGUCAUUGAAGAUU (SEQ 68), antisense UCUUCAAUGACGUUGCGUGUU (SEQ 125) (listed as RNA, chemistry not given here) | 18.3% |  |
| SMYD2 1082-1104: siRNA to human SMYD2; sense CAAUAUGGACAGAAAAUCAUU (SEQ 74), antisense UGAUUUUCUGUCCAUAUUGCA (SEQ 131) | 35.2% |  |
| SMYD2 416-438: siRNA to human SMYD2; sense GAUAAGUUAGACAAUGAGAAG (SEQ 73), antisense UCUCAUUGUCUAACUUAUCCA (SEQ 130) (listed as RNA, chemistry not given here) | 28.5% |  |
| SMYD2 767-789: siRNA to human SMYD2; sense GAUUCUUAUUUCUUUACCUGU (SEQ 76), antisense AGGUAAAGAAAUAAGAAUCUC (SEQ 133) (listed as RNA, chemistry not given here) | 46.4% |  |
| SMYD2 493: siRNA to human SMYD2; sense CGGAUUCCCUGACAAUGAUUU (SEQ 66), antisense AUCAUUGUCAGGGAAUCCGUU (SEQ 123) (listed as RNA, chemistry not given here) | 20.0% |  |
| SMYD2 1078: siRNA to human SMYD2; sense CCUGCAAUAUGGACAGAAAUU (SEQ 62), antisense UUUCUGUCCAUAUUGCAGGUU (SEQ 119) (listed as RNA, chemistry not given here) | 107.5% |  |
| SMYD2 750-772: siRNA to human SMYD2; sense GAAAUGACCGGUUAAGAGAUU (SEQ 78), antisense UCUCUUAACCGGUCAUUUCUA (SEQ 135) (listed as RNA, chemistry not given here) | 26.5% |  |
| SMYD2 1252-1274: siRNA to human SMYD2; sense CAAAGAUCAUCCAUAUAUUUC (SEQ 69), antisense AAUAUAUGGAUGAUCUUUGCC (SEQ 126) (listed as RNA, chemistry not given here) | 13.1% |  |
| SMYDS 588: siRNA to human SMYD2; sense CAGCGAUAUUUCCUGAUGUUU (SEQ 67), antisense ACAUCAGGAAAUAUCGCUGUU (SEQ 124) (listed as RNA, chemistry not given here) | 26.3% |  |
| SMYD2 759-781: siRNA to human SMYD2; sense GGUUAAGAGAUUCUUAUUUCU (SEQ 71), antisense AAAUAAGAAUCUCUUAACCGG (SEQ 128) (listed as RNA, chemistry not given here) | 37.7% |  |
| SMYD2 1077: siRNA to human SMYD2; sense CCCUGCAAUAUGGACAGAAUU (SEQ 65), antisense UUCUGUCCAUAUUGCAGGGUU (SEQ 122) (listed as RNA, chemistry not given here) | 72.7% |  |
| SMYD2 758-780: siRNA to human SMYD2; sense CGGUUAAGAGAUUCUUAUUUC (SEQ 75), antisense AAUAAGAAUCUCUUAACCGGU (SEQ 132) (listed as RNA, chemistry not given here) | 38.8% |  |
| O=C1COc2c(CCNCCN(C(=O)CCNCCc3ccc(Cl)c(Cl)c3)C3CCCCC3)ccc(O)c2N1 [AZ505] |  | IC50 (SMYD2; SMYD2): 120 nM; selectivity for SMYD2 (SMYD2): > 600 fold; body weight (WD NASH model; [1]): significant reductions; liver appearance (WD NASH model; [1]): Smaller, less pale livers; liver cholesterol (WD NASH model; [1]): modest increase; liver triglycerides (WD NASH model; [1]): significant decrease; liver weight (WD NASH model; [1]): significant reductions; liver/body weight ratios (WD NASH model; [1]): significant reductions; plasma lipids (triglyceride and cholesterol) (WD NASH model; [1]): modest increase; steatosis (liver histology, H&E) (WD NASH model; [1]): dramatically decreased steatosis; transaminitis (plasma ALT and AST) (WD NASH model; [1]): improved; fatty liver disease (overall effect) (WD NASH model; WD NASH model, AZ505 10 mg/kg i.p. 3 times per week, 2 months): ameliorates; tolerability of dose (WD NASH model; mouse, in vivo): well tolerated |
